According to paper PMC6753678, “Fueling Open Innovation for Malaria Transmission-Blocking Drugs: Hundreds of Molecules Targeting Early Parasite Mosquito Stages” (Frontiers in Microbiology, 2019):
Like-named read-outs stand apart in the source and are kept apart here.

Columns and labels:
[1] = test system: 3D7-strain P. falciparum asexual parasites; test: P. falciparum asexual growth inhibition assay (Pf GIA); assay type: cell-based, Plasmodium falciparum; conditions: dose response confirmation; read-out: Pf asexual growth inhibition assays IC50
Description: The asexual activity of active compounds was tested in dose response with parasite lactate dehydrogenase (LDH) activity used as a readout of parasite viability as described in [Gamo et al. (2010)]. Briefly, 3D7-strain P. falciparum asexual parasites were diluted to 0.25% parasitemia, 2% hematocrit in culture medium composed of RPMI medium with 25 mM HEPES, 2% D-sucrose, 0.3% L-glutamine, 150 μM hypoxanthine plus 5% albumax. 25 μl of parasite inoculum was then dispensed into each well of a 384 well plate containing test compounds and positive (50 μM chloroquine) and negative (DMSO) controls. Plates were incubated for 72 h at 37°C in a 5% CO2, 5%O2, 90% N2 environment before being frozen at −70°C. Plates were then thawed and 70 μl of reaction mix (143 mM sodium L-lactate, 143 mM 3-acetyl pyridine adenine dinucleotide, […] Nitro Blue tetrazolium chloride, […] diaphorase (2.83 U/ml), 0.7% Tween 20, 100 mM Tris–HCl pH 8.0) was added to each well using a Multidrop Combi automated dispenser. Plates were shaken to mix and then absorbance at 650 nm was measured after 10 min incubation at room temperature. Percent inhibition of asexual growth was then calculated with respect to positive and negative controls. Data presented is the mean of three independent biological replicates.

HepG2 cells = test: HepG2 cytotoxicity assay; conditions: for Pb ODA (this manuscript) HepG2 cytoxicity: HepG2 cytotoxicity listed with the Pb ODA data set (this manuscript); for IC50: read-out: HepG2 cytotoxicity assay IC50, dose response confirmation
Description: Briefly, HepG2 cells were seeded onto compound-treated 384 well plates at a density of 2,500 cells per well in Minimal Essential Medium (MEM) plus 10% fetal bovine serum and 1% non-essential amino acids solution (NEAA). Cells were incubated with test compounds or 50 μM doxorubicin (positive) and DSMO (negative) controls at 37°C for 48 h in a humidified 5% CO2 atmosphere. […] Cell viability was then measured in a fluorescent plate reader and percent inhibition calculated with respect to positive and negative controls.

[2] = test system: P. berghei ookinete development; conditions: for % inhibition, Replicate A / % inhibition, Replicate B: primary screen at 1 μM
[3] = read-out: Pb ODA (this manuscript) IC50, P. berghei ookinete development assay, this manuscript
[4] = read-out: Pb Ookinete development assay IC50, dose response confirmation
[5] = unified HepG2 value across the three screens
[6] = read-out: Pb ODA IC50, this manuscript
[7] = HepG2 values of the three screens unified

SMILES	IC50 [1]	Pb ODA (this manuscript) HepG2 cytoxicity (HepG2 cells)	IC50 (HepG2 cells)	Is compound selective in assay? Pb ODA active? [2]	% inhibition, Replicate A [2]	% inhibition, Replicate B [2]	IC50 [2, 3]	IC50 [2, 4]	Unified cytotox (HepG2 cells; [5])	Is compound selective in assay? Pb ODA active? ([2]; 1: YES, 0: NO)	IC50 [2, 6]	HepG2 cytoxicity (Pb ODA, this manuscript) (HepG2 cells)	Unified cytotox (HepG2 cells; [7])
Br.CC(C)(C)c1ccccc1OCCCON1C(=N)N=C(N)NC1(C)C [TCMDC-131751]	< 0.2 nM	0.001 µM	1 nM	0 (key: 1: YES; 0: NO)	62.16%	60.88%	3070 nM	3070 nM	–	–	–	–	–
CNC(=O)c1cc(F)c(F)cc1Nc1nc(Nc2cccc(CS(C)(=O)=O)c2)ncc1Cl.O=CO [TCMDC-134060]	1570 nM	100.00 µM	100000 nM	1 (key: 1: YES; 0: NO)	53.04%	41.11%	2150 nM	2150 nM	–	–	–	–	–
Cc1[nH]c(C)c(-c2csc3ccccc23)c(=O)c1Cl [TCMDC-136017]	2260 nM	–	100000 nM	–	37.82%	76.50%	–	1840 nM	100.00 µM	1 (1: YES)	1840 nM	–	–
CS(=O)(=O)Cc1cccc(Nc2ncc(Cl)c(Nc3cccnc3C(N)=O)n2)c1.Cl [TCMDC-134166]	273 nM	4.79 µM	4790 nM	0 (key: 1: YES; 0: NO)	102.49%	90.53%	1210 nM	1200 nM	–	–	–	–	–
Cc1[nH]c2ccccc2c1C(=O)C(C)Sc1nnc(-c2ccccc2F)o1 (centres unmarked) [TCMDC-125312]	1270 nM	–	57500 nM	–	63.08%	65.66%	–	2580 nM	57.54 µM	1 (1: YES)	–	–	–
Cc1cc2c3c(N)nc(N)nc3ccc2n1C(C)C [TCMDC-137864]	4 nM	–	33.1 nM	–	66.13%	75.37%	–	2320 nM	–	0 (0: NO)	2320 nM	0.0331 µM	0.0331 µM
Cc1[nH]cc(Br)c(=O)c1-c1ccc(Oc2ccccc2)cc1 [TCMDC-136196]	422 nM	–	100000 nM	–	91.11%	82.53%	–	369 nM	–	1 (1: YES)	370 nM	–	100.00 µM
CC1(C)N=C(N)N=C(N)N1OCCCc1ccccc1.Cl [TCMDC-131689]	< 0.2 nM	–	1 nM	–	42.43%	56.50%	–	2540 nM	–	0 (0: NO)	2540 nM	0.001 µM	0.001 µM
COCCn1c(-c2cccc(Cl)c2)nn(-c2ccc([N+](=O)[O-])cc2Cl)c1=S [TCMDC-135130]	947 nM	–	100000 nM	–	51.94%	48.77%	–	1600 nM	100.00 µM	1 (1: YES)	–	–	–
CN(C)c1ccc(C=CC(=O)NC(=O)c2ccccc2O)cc1 [TCMDC-125391]	123 nM	–	100000 nM	–	87.61%	62.62%	–	210 nM	100.00 µM	1 (1: YES)	–	–	–
Cc1[nH]c(C)c(-c2ccc(OCc3ccccc3)cc2)c(=O)c1Br [TCMDC-138901]	108 nM	100.00 µM	100000 nM	1 (key: 1: YES; 0: NO)	91.81%	92.28%	220 nM	224 nM	–	–	–	–	–
COc1cc(F)c2ncc(Cl)c(CCN3CCC(NCc4ccc5c(c4)NC(=O)CS5)CC3)c2c1.Cl [TCMDC-135620]	15 nM	–	10600 nM	–	131.37%	63.52%	–	467 nM	10.59 µM	1 (1: YES)	470 nM	–	–
Cl.OCC(CO)(CO)NCc1ccc2c3c(cccc13)-c1ccccc1-2 [TCMDC-137877]	1970 nM	–	9550 nM	–	56.61%	22.47%	–	564 nM	9.55 µM	1 (1: YES)	560 nM	–	–
COc1ccc2nccc(NC(=O)C3CCC(NCc4cnc(SC)c([N+](=O)[O-])c4)CC3)c2n1.Cl (centres unmarked) [TCMDC-131238]	676 nM	14.62 µM	14600 nM	0 (key: 1: YES; 0: NO)	77.59%	35.00%	2410 nM	2410 nM	–	–	–	–	–
COc1cccc(Cn2ccc3c4c(N)nc(N)nc4ccc32)c1 [TCMDC-137811]	< 0.2 nM	–	12.9 nM	–	65.46%	68.96%	–	1560 nM	–	0 (0: NO)	1560 nM	0.0129 µM	0.0129 µM
CC(C)(CN)c1nc(-c2ccc(Cl)c(O)c2)c(-c2ccnc(N)n2)[nH]1 [TCMDC-141019]	863 nM	–	–	–	10.20%	56.84%	–	1720 nM	–	–	–	–	–
NS(=O)(=O)c1cncc(-c2ccc3nccc(-c4cn[nH]c4)c3n2)c1 [TCMDC-134293]	283 nM	–	–	–	59.71%	54.48%	–	2160 nM	–	–	–	–	–
FC(F)(F)c1ccc(Nc2nnnc3ccccc23)cc1 [TCMDC-125603]	9 nM	–	–	–	80.24%	96.04%	–	1260 nM	–	–	–	–	–
Cc1nc(C)c(-c2ccc(Oc3ccc(Cl)cc3Cl)cc2)c(O)c1Br [TCMDC-137533]	165 nM	–	–	–	69.44%	92.36%	–	203 nM	–	–	–	–	–
COc1ccc2nccc([C@@H](O)CN3CCC(NCc4cc5cccc6c5n(c4=O)CCC6)CC3)c2c1.O=C(O)C(=O)O [TCMDC-140735]	–	–	16200 nM	–	13.85%	52.08%	–	3430 nM	16.22 µM	0 (0: NO)	3430 nM	–	–
